The first experiment has as its target T1, Cloned Human Dopamine D3 Receptors (Homo sapiens, UniProt P35462).
T1 construct: expressed in transfected cells; membrane homogenate
Kind of experiment: [N-Methyl-3H]Spiroperidol binding to cloned human dopamine D3 receptors. The note with it: D3 Ki (nM). The method in brief:
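Membranes from CHO cells stably expressing human D3 receptor, homogenised in 10% DMSO and stored at -80°C. Binding uses [N-methyl-3H]spiroperidol in Tris buffer, pH 7.7.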
T1 sequence (P35462 whole entry): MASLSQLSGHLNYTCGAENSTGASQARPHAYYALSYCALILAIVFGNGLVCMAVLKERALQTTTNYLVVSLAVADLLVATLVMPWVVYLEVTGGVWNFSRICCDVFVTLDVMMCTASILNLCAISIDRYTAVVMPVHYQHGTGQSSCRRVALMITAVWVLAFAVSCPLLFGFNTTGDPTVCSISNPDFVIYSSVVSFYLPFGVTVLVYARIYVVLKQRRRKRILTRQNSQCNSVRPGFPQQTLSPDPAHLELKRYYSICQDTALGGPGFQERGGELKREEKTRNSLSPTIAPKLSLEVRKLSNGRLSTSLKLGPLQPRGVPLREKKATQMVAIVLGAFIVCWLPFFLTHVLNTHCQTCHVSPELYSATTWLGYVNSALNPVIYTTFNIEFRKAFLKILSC
What is called Ki is the dissociation constant of the complex between target and ligand, obtained from inhibition or displacement. Take `CCC1CCC(NC(=O)C2CC2CN2CCC(c3nn(-c4ccc(C(F)(F)F)cc4)c4ccccc34)CC2)CC1` (stereo not drawn) [compound 830133]: affinity was put at a Ki of 176 nM.
Turning to `C[C@H]1CC[C@H](NC(=O)[C@@H]2C[C@H]2CN2CCN(c3noc4ccsc34)CC2)CC1` [compound 831083], the Ki was found to be 3.2 nM.
On the same count and under the same terms, then `O=C(NCCCn1ccnc1)[C@@H]1C[C@H]1CN1CCC(c2nn(-c3ccc(C(F)(F)F)cc3)c3ccccc23)CC1` [compound 831311], with 38.7 nM; and `Cn1nc(N2CCN(CC3CC3C(=O)NCCCn3ccnc3)CC2)c2sccc21` (stereo not drawn) [compound 831673], with 23.5 nM; and `O=C(NC1CCN(CC2CCCCC2)CC1)C1CC1CN1CCC(c2noc3ccsc23)CC1` (stereo not drawn) [compound 831823], with 2.37 nM.
`COc1ccccc1CN1CCC(NC(=O)C2CC2CN2CCC(c3noc4ccsc34)CC2)CC1` (stereo not drawn) [compound 831991] yielded an inhibition constant (Ki) of 0.722 nM.
For `CN1CCCC1CCNC(=O)C1CC1CN1CCN(c2csc3cc(C(F)(F)F)ccc23)CC1` (stereo not drawn) [compound 832217], the affinity corresponds to a Ki of 44.1 nM.
Consider `O=C(NC1CCN(Cc2ccc(F)c(F)c2)CC1)C1CC1CN1CCC(c2noc3ccsc23)CC1` (stereo not drawn) [compound 832342], for which the affinity corresponds to a Ki of 0.077 nM.
With `O=C(NC1CCN(Cc2cc(F)ccc2F)CC1)C1CC1CN1CCC(c2noc3ccsc23)CC1` (stereo not drawn) [compound 832345], the affinity, expressed as Ki, was 1.46 nM.
On the same count and under the same terms, for `O=C(NC1CCN(Cc2ccc(C(F)(F)F)cc2)CC1)C1CC1CN1CCC(c2noc3ccsc23)CC1` (stereo not drawn) [compound 832349] the value was 0.843 nM; for `O=C(C1CC1CN1CCC(c2noc3ccsc23)CC1)N1CCC(Nc2ccc(Cl)cc2)CC1` (stereo not drawn) [compound 832395], 30.2 nM.
`O=C(NC1CCN(Cc2cccc(F)c2)CC1)[C@@H]1C[C@H]1CN1CCC(c2noc3ccsc23)CC1` [compound 832727]: the inhibitory constant (Ki) was determined as 1.19 nM.
With `Cn1nc(C2CCN(C[C@@H]3C[C@H]3C(=O)NCCCN3CCCCC3)CC2)c2cccc(C(F)(F)F)c21` [compound 833090], the Ki is 41.8 nM.
Same read-out and setting: for `O=C([C@@H]1C[C@H]1CN1CCC(c2noc3ccsc23)CC1)N1CCN(Cc2ccc(Cl)cc2)CC1` [compound 833128] the value was 28.7 nM.
Still for that read-out and setting: for `O=C(NC1CCN(C(=O)Nc2ccc(F)cc2)CC1)[C@@H]1C[C@H]1CN1CCC(c2noc3ccsc23)CC1` [compound 833715] the value was 5.7 nM; for `Cn1nc(C2CCN(C[C@@H]3C[C@H]3C(=O)N[C@H]3CC[C@H](C)CC3)CC2)c2cc(C(F)(F)F)ccc21` [compound 833769], 1.63 nM.

The same experiment, now with this note: read-out: D3 Ki.
As for `O=C(NCCCN1CCOCC1)[C@@H]1C[C@H]1CN1CCC(c2noc3ccsc23)CC1` [compound 831046], the Ki was 15.5 nM.
As for `CN(C)CCCNC(=O)[C@@H]1C[C@H]1CN1CCC(c2noc3ccsc23)CC1` [compound 831048], the Ki was determined as 11.3 nM.
In the case of `O=C(NCCCc1ccncc1)[C@@H]1C[C@H]1CN1CCC(c2noc3ccsc23)CC1` [compound 831197], the inhibitory constant (Ki) came out at 4.17 nM.
For the compound `O=C(NCCCn1cccn1)[C@@H]1C[C@H]1CN1CCC(c2noc3ccsc23)CC1` [compound 831273], the Ki amounted to 68.6 nM.
Still for that read-out and setting: for `COc1ccc2[nH]cc(CCNC(=O)[C@@H]3C[C@H]3CN3CCC(c4noc5ccsc45)CC3)c2c1` [compound 831275] the value was 5.15 nM.
Same read-out and setting: for `COc1ccc2c(CCNC(=O)[C@@H]3C[C@H]3CN3CCC(c4noc5ccsc45)CC3)c[nH]c2c1` [compound 831276] the value was 3.85 nM; for `O=C(NCCCc1ccccc1)[C@@H]1C[C@H]1CN1CCC(c2cc3ccccc3s2)CC1` [compound 831489], 16.9 nM; for `O=C(NCCCn1ccnc1)[C@@H]1C[C@H]1CN1CCN(c2noc3ccsc23)CC1` [compound 831493, 2R-(4-Thieno[2,3-d]isoxazol-3-yl-piperazin-1-ylmethyl)-1 R-cyclopropanecarboxylic acid (3-imidazol-1-yl-propyl)-amide], 4.95 nM.
For the compound `O=C(NCCCc1ccccc1)[C@@H]1C[C@H]1CN1CCN(c2noc3ccsc23)CC1` [compound 831494], the inhibition constant (Ki) amounted to 28.3 nM.
Still for that read-out and setting: for `COc1cccc2c(C3CCN(C[C@@H]4C[C@H]4C(=O)N4CCC(Oc5ccc(F)cc5)CC4)CC3)noc12` [compound 831878] the value was 189 nM.
The same measure, in the same setting: then `COc1ccc2c(c1)c(N1CCN(C[C@@H]3C[C@H]3C(=O)N[C@H]3CC[C@H](O)CC3)CC1)nn2-c1ccc(C(F)(F)F)cc1` [compound 831949], with 29 nM; and `O=C(NC1CCC(O)CC1)C1CC1CN1CCN(c2noc3ccsc23)CC1` (stereo not drawn) [compound 831955], with 47.3 nM.
Same read-out and setting: for `O=C(C1CC1CN1CCC(c2noc3ccsc23)CC1)N1CCN(CCc2ccccn2)CC1` (stereo not drawn) [compound 832001] the value was 157 nM; for `Cc1nc(N)sc1CCNC(=O)C1CC1CN1CCC(c2noc3ccsc23)CC1` (stereo not drawn) [compound 832045], 22 nM; for `O=C(C1CC1CN1CCC(c2noc3ccsc23)CC1)N1CCN(CCC2CCCCC2)CC1` (stereo not drawn) [compound 832058], 24.2 nM.
On to `CC1CCC(NC(=O)C2CC2CN2CCC(c3noc4c(C(F)(F)F)cccc34)CC2)CC1` (stereo not drawn) [compound 832203], for which the inhibition constant Ki was determined as 4.76 nM.
Turning to `O=C(NCCCN1CCOCC1)[C@@H]1C[C@H]1CN1CCC(c2noc3c(C(F)(F)F)cccc23)CC1` [compound 832273], the Ki was found to be 205 nM.
As to `O=C(NC1CCNCC1)[C@@H]1C[C@H]1CN1CCN(c2csc3cc(C(F)(F)F)ccc23)CC1` [compound 832502], the Ki was found to be 2.67 nM.
In the case of `Cn1nc(C2CCN(C[C@@H]3C[C@H]3C(=O)NCCCn3ccnc3)CC2)c2cccc(C(F)(F)F)c21` [compound 832654, 2R-[4-(1-Methyl-7-trifluoromethyl-1 H-indazol-3-yl)-piperidin-1-ylmethyl]-1 R-cycloproanecarboxylic acid (3-imidazol-1-yl-propyl)-amide], the Ki came out at 4.72 nM.
For the compound `O=C(NC1CCN(CC2CC2)CC1)[C@@H]1C[C@H]1CN1CCN(c2csc3cc(C(F)(F)F)ccc23)CC1` [compound 832734], the Ki worked out at 9.85 nM.
Still for that read-out and setting: for `O=C(NC1CCN(Cc2cccc(F)c2)CC1)[C@@H]1C[C@H]1CN1CCN(c2csc3cc(C(F)(F)F)ccc23)CC1` [compound 832736] the value was 2.74 nM; for `O=C(NC1CCN(Cc2ccc(F)cc2)CC1)[C@@H]1C[C@H]1CN1CCN(c2csc3cc(C(F)(F)F)ccc23)CC1` [compound 832738], 3.26 nM.
Turning to `COc1ccc2c(c1)c(N1CCN(C[C@@H]3C[C@H]3C(=O)NCCCN3CCN(C)CC3)CC1)nn2C` [compound 833121], the Ki amounted to 26.5 nM.
Consider `O=C(NC1CCN(Cc2ccc(F)c(F)c2)CC1)[C@@H]1C[C@H]1CN1CCC(c2noc3ccsc23)CC1` [compound 833165], for which the Ki is 1.07 nM.
On the same count and under the same terms, then `Cn1nc(C2CCN(C[C@@H]3C[C@H]3C(=O)N[C@H]3CC[C@H](C)CC3)CC2)c2cccc(C(F)(F)F)c21` [compound 833305], with 8.81 nM; and `CC(C)(C)OC(=O)N1CCC(CNC(=O)C2CC2CN2CCN(c3csc4cc(C(F)(F)F)ccc34)CC2)C1` (stereo not drawn) [compound 833625], with 22.2 nM.
Same read-out and setting: then `COc1ccc2c(c1)c(N1CCN(C[C@@H]3C[C@H]3C(=O)N3CCC(CCN4CCCC4)CC3)CC1)nn2C` [compound 833628], with 95.8 nM; and `COc1ccc2c(c1)c(N1CCN(C[C@@H]3C[C@H]3C(=O)NC[C@H]3CCN(C(=O)OC(C)(C)C)C3)CC1)nn2C` [compound 833630], with 52.1 nM.
In the case of `COc1ccc2c(c1)c(N1CCN(C[C@@H]3C[C@H]3C(=O)NCCCN(C)C)CC1)nn2C` [compound 833631], the Ki was found to be 31.3 nM.
On the same count and under the same terms, then `C[C@H]1CC[C@H](NC(=O)[C@@H]2C[C@H]2CN2CCC(c3csc4c(C(F)(F)F)cccc34)CC2)CC1` [compound 833690, 2R-[4-(7-Trifluoromethyl-benzo[b]thiophen-3-yl)-piperidin-1-ylmethyl]-1R-cyclopropanecarboxylic acid (trans-4-methyl-cyclohexyl)-amide], with 7.97 nM; and `C[C@H]1CC[C@H](NC(=O)[C@@H]2C[C@H]2CN2CCC(c3nc4cc(Cl)ccc4o3)CC2)CC1` [compound 833692], with 72.9 nM; and `O=C(NCCCn1ccnc1)[C@@H]1C[C@H]1CN1CCN(c2csc3ncccc23)CC1` [compound 833821, 2R-(4-Thieno[2,3-b]pyridin-3-yl-piperazin-1-ylmethyl)-1R-cyclopropanecarboxylic acid (3-imidazol-1-yl-propyl)-amide], with 6.91 nM.
Turning to `Cn1nc(N2CCN(C[C@@H]3C[C@H]3C(=O)NCCCn3ccnc3)CC2)c2ccccc21` [compound 833822], the inhibition constant (Ki) was 0.64 nM.
On the same count and under the same terms, for `O=C(NCCCn1ccnc1)[C@@H]1C[C@H]1CN1CCN(c2nn(-c3ccc(F)cc3)c3ccccc23)CC1` [compound 833823] the value was 0.637 nM; for `C[C@H]1CC[C@H](NC(=O)[C@@H]2C[C@H]2CN2CCN(c3nn(-c4cccc(F)c4)c4ccsc34)CC2)CC1` [compound 833856], 3.01 nM.
Still for that read-out and setting: for `C[C@H]1CC[C@H](NC(=O)[C@@H]2C[C@H]2CN2CCN(c3nn(-c4ccc(OC(F)(F)F)cc4)c4ccsc34)CC2)CC1` [compound 833876] the value was 50.3 nM; for `O=C(NCCCn1ccnc1)[C@@H]1C[C@H]1CN1CCC(c2csc3cc(C(F)(F)F)ccc23)CC1` [compound 834003], 3.51 nM; for `C[C@H]1CC[C@H](NC(=O)[C@@H]2C[C@H]2CN2CCC(c3csc4cc(C(F)(F)F)ccc34)CC2)CC1` [compound 834016], 1.63 nM.
As to `COc1cccc2c(C3CCN(C[C@@H]4C[C@H]4C(=O)N[C@H]4CC[C@H](C)CC4)CC3)nn(C)c12` [compound 834054], the Ki is 13.8 nM.

The experiment is the same for the next values; noted with them: the 16th table; read-out: D3 Ki.
As for `O=C(NCCCn1ccnc1)C1(CCN2CCN(c3csc4cc(C(F)(F)F)ccc34)CC2)CC1` [compound 832231, 1-{2-[4-(6-Trifluoromethyl-benzo[b]thiophen-3-yl)-piperazin-1-yl]-ethyl}-cyclopropanecarboxylic acid (3-imidazol-1-yl-propyl)-amide], the Ki was determined as 6.93 nM.
`COc1c(F)ccc2c(C3CCN(CCC4(C(=O)N[C@H]5CC[C@H](C)CC5)CC4)CC3)noc12` [compound 833330]: the inhibition constant Ki is 72.7 nM.

For the origin of these results see EP1935887A1, “Heterocyclic substituted carbonyl derivatives and their use as dopamine D3 receptor ligands” (Aventis Pharmaceuticals Inc., priority 2001, dated 2002).
